# Target: T1, Recombinant human HSP90a (Homo sapiens, UniProt P07900)
# T1 construct: host or cells: E. coli
# Test: HSP90 radioligand filter binding test ([3H]17AAG competition)
# Conditions: [3H]17AAG 0.08 μM, HSP90 1.5 μg/assay, 22° C., 30 min; read-out: IC50 (HSP90 inhibition)
# Text: Test Method for the Measurement of HSP90 Inhibitors
# The binding of geldanamycin or 17-allylamino-17-demethoxygeldanamycin (17AAG) to HSP90 and competitive inhibition thereof can be utilised in order to determine the inhibitory activity of the compounds according to the invention (Carreras et al. 2003, Chiosis et al. 2002).
# In the specific case, a radioligand filter binding test is used. The radioligand used here is tritium-labelled 17-allylaminogeldanamycin, [3H]17AAG. This filter binding test allows a targeted search for inhibitors which interfere with the ATP binding site.
# Recombinant human HSP90a (E. coli expressed, 95% purity);
# [3H]17AAG (17-allylaminogeldanamycin, [allylamino-2,3-^3H. Specific activity: 1.11×10^12 Bq/mmol (Moravek, MT-1717);
# HEPES filter buffer (50 mM HEPES, pH 7.0, 5 mM MgCl2, BSA 0.01%)
# Multiscreen FB (1 μm) filter plate (Millipore, MAFBNOB 50).
# The 96-well microtitre filter plates are firstly irrigated and coated with 0.1% of polyethylenimine.
# The test is carried out under the following conditions:
# Reaction temperature 22° C.
# Reaction time: 30 min., shaking at 800 rpm
# 50 mM HEPES HCl, pH 7.0, 5 mM MgCl2, 0.01% (w/v) of BSA
# At the end of the reaction, the supernatant in the filter plate is removed by suction with the aid of a vacuum manifold (Multiscreen Separation System, Millipore), and the filter is washed twice.
# The filter plates are then measured in a beta counter (Microbeta, Wallac) with scintillator (Microscint 20, Packard).
# “% of control” is determined from the “counts per minutes” values, and the IC-50 value of a compound is calculated therefrom.
row,SMILES,IC50 [µM]
1,C[N+]1([O-])CCN(S(=O)(=O)c2ccccc2-c2ccc3nc(N)nc(C(=O)N4Cc5ccccc5C4)c3c2)CC1 [Compound A7],0.01 to 1
2,Nc1nc(C(=O)N2Cc3ccccc3C2)c2cc(-c3ccccc3S(=O)(=O)N3CCC(O)CC3)ccc2n1 [Compound A9],0.01 to 1
3,"NCC(=O)OC1CCN(S(=O)(=O)c2ccccc2-c2ccc3nc(N)nc(C(=O)N4Cc5ccccc5C4)c3c2)CC1 [Compound A10, 1-{2-[2-amino-4-(1,3-dihydroisoindole-2-carbonyl)quinazolin-6-yl]benzenesulfonyl}piperidin-4-yl aminoacetate]",0.01 to 1
4,Nc1nc(C(=O)N2Cc3ccccc3C2)c2cc(-c3ccccc3S(=O)(=O)N3CCNC(=O)C3)ccc2n1 [Compound A12],0.01 to 1
5,"CNCCNS(=O)(=O)c1ccccc1-c1ccc2nc(N)nc(C(=O)N3Cc4ccccc4C3)c2c1 [Compound A16, 2-[2-amino-4-(1,3-dihydroisoindole-2-carbonyl)quinazolin-6-yl]-N-(2-methylaminoethyl)benzenesulfonamide]",0.01 to 1
6,"CC1CCCN1S(=O)(=O)c1ccccc1-c1ccc2nc(N)nc(C(=O)N3Cc4ccccc4C3)c2c1 (stereo not drawn) [Compound A19, {2-Amino-6-[2-(2-methylpyrrolidine-1-sulfonyl)phenyl]quinazolin-4-yl}-(1,3-dihydroisoindol-2-yl)methanone]",0.01 to 1
7,CC(=O)NC1CCN(S(=O)(=O)c2ccccc2-c2ccc3nc(N)nc(C(=O)N4Cc5ccccc5C4)c3c2)C1 (stereo not drawn) [Compound A20],0.01 to 1
8,"Nc1nc(C(=O)N2Cc3ccccc3C2)c2cc(-c3ccccc3S(=O)(=O)N3CCC(CO)C3)ccc2n1 (stereo not drawn) [Compound A21, {2-Amino-6-[2-(3-hydroxymethylpyrrolidine-1-sulfonyl)phenyl]quinazolin-4-yl}-(1,3-dihydroisoindol-2-yl)methanone]",0.01 to 1
9,CN(CCO)C(=O)c1ccccc1-c1ccc2nc(N)nc(C(=O)N3Cc4ccccc4C3)c2c1 [Compound A22],0.01 to 1
10,Nc1nc(C(=O)N2Cc3ccccc3C2)c2cc(-c3ccccc3C(=O)N3CCC(O)CC3)ccc2n1 [Compound A23],0.01 to 1
11,CCN(CCO)C(=O)c1ccccc1-c1ccc2nc(N)nc(C(=O)N3Cc4ccccc4C3)c2c1 [Compound A24],0.01 to 1
12,"Nc1nc(C(=O)N2Cc3ccccc3C2)c2cc(-c3ccccc3S(=O)(=O)NC3CNC3)ccc2n1 [Compound A26, 2-[2-amino-4-(1,3-dihydroisoindole-2-carbonyl)quinazolin-6-yl]-N-azetidin-3-ylbenzenesulfonamide]",0.01 to 1
13,"Nc1nc(C(=O)N2Cc3ccccc3C2)c2cc(-c3ccccc3S(=O)(=O)N3CC(N)C3)ccc2n1 [Compound A29, {2-amino-6-[2-(3-aminoazetidine-1-sulfonyl)phenyl]quinazolin-4-yl}-(1,3-dihydroisoindol-2-yl)methanone]",0.01 to 1
14,Nc1nc(C(=O)N2Cc3ccccc3C2)c2cc(-c3ccccc3S(=O)(=O)N3CCC(O)C3)ccc2n1 (stereo not drawn) [Compound A31],0.01 to 1
15,"Nc1nc(C(=O)N2Cc3ccccc3C2)c2cc(-c3ccccc3S(=O)(=O)N3CCCC3)ccc2n1 [Compound A32, {2-Amino-6-[2-(pyrrolidine-1-sulfonyl)phenyl]quinazolin-4-yl}-(1,3-dihydroisoindol-2-yl)methanone]",0.01 to 1
16,"Nc1nc(C(=O)N2Cc3ccccc3C2)c2cc(-c3ccccc3S(=O)(=O)N3CCC(N)C3)ccc2n1 (stereo not drawn) [Compound A33, {2-amino-6-[2-(3-aminopyrrolidine-1-sulfonyl)phenyl]quinazolin-4-yl}-(1,3-dihydroisoindol-2-yl)methanone]",0.01 to 1
17,Nc1nc(C(=O)N2Cc3ccccc3C2)c2cc(-c3ccccc3C(=O)N3CCC(CO)C3)ccc2n1 (stereo not drawn) [Compound A35],0.01 to 1
18,Nc1nc(C(=O)N2Cc3ccccc3C2)c2cc(-c3ccccc3C(=O)N3CCC(O)C3)ccc2n1 (stereo not drawn) [Compound A36],0.01 to 1
19,"COC(=O)C1CCCN1C(=O)c1ccccc1-c1ccc2nc(N)nc(C(=O)N3Cc4ccccc4C3)c2c1 (stereo not drawn) [Compound A37, Methyl 1-{2-[2-amino-4-(1,3-dihydroisoindole-2-carbonyl)quinazolin-6-yl]benzoyl}pyrrolidine-2-carboxylate]",0.01 to 1
20,CN(C)C(=O)c1ccccc1-c1ccc2nc(N)nc(C(=O)N3Cc4ccccc4C3)c2c1 [Compound A38],0.01 to 1
21,CCN(C)C(=O)c1ccccc1-c1ccc2nc(N)nc(C(=O)N3Cc4ccccc4C3)c2c1 [Compound A39],0.01 to 1
22,"CCN(CC)C(=O)c1ccccc1-c1ccc2nc(N)nc(C(=O)N3Cc4ccccc4C3)c2c1 [Compound A40, 2-[2-Amino-4-(1,3-dihydroisoindole-2-carbonyl)quinazolin-6-yl]-N,N-diethylbenzamide]",0.01 to 1

# Results, then the compound that gave them:
row,IC50 [µM],SMILES
1,0.01 to 1,"CC(C)(C)NS(=O)(=O)c1ccccc1-c1ccc2nc(N)nc(C(=O)N3Cc4ccccc4C3)c2c1 [Compound A1, 2-[2-Amino-4-(1,3-dihydroisoindole-2-carbonyl)quinazolin-6-yl]-N-tert-butylbenzenesulfonamide]"
2,0.01 to 1,"Nc1nc(C(=O)N2Cc3ccccc3C2)c2cc(-c3ccccc3S(N)(=O)=O)ccc2n1 [Compound A2, 2-[2-amino-4-(1,3-dihydroisoindole-2-carbonyl)quinazolin-6-yl]-benzenesulfonamide]"
3,0.01 to 1,CN(C)CCNS(=O)(=O)c1ccccc1-c1ccc2nc(N)nc(C(=O)N3Cc4ccccc4C3)c2c1 [Compound A3]
4,0.01 to 1,CN(C)S(=O)(=O)c1ccccc1-c1ccc2nc(N)nc(C(=O)N3Cc4ccccc4C3)c2c1 [Compound A4]
5,0.01 to 1,"CCNS(=O)(=O)c1ccccc1-c1ccc2nc(N)nc(C(=O)N3Cc4ccccc4C3)c2c1 [Compound A5, 2-[2-Amino-4-(1,3-dihydroisoindole-2-carbonyl)quinazolin-6-yl]-N-ethylbenzenesulfonamide]"
6,0.01 to 1,"CNS(=O)(=O)c1ccccc1-c1ccc2nc(N)nc(C(=O)N3Cc4ccccc4C3)c2c1 [Compound A6, 2-[2-Amino-4-(1,3-dihydroisoindole-2-carbonyl)quinazolin-6-yl]-N-methylbenzenesulfonamide]"
7,0.01 to 1,CN(CCO)S(=O)(=O)c1ccccc1-c1ccc2nc(N)nc(C(=O)N3Cc4ccccc4C3)c2c1 [Compound A8]
8,0.01 to 1,"Nc1nc(C(=O)N2Cc3ccccc3C2)c2cc(-c3ccccc3S(=O)(=O)NCCO)ccc2n1 [Compound A11, 2-[2-Amino-4-(1,3-dihydroisoindole-2-carbonyl)quinazolin-6-yl]-N-(2-hydroxyethyl)benzenesulfonamide]"
9,0.01 to 1,"CNCCN(C)S(=O)(=O)c1ccccc1-c1ccc2nc(N)nc(C(=O)N3Cc4ccccc4C3)c2c1 [Compound A13, 2-[2-Amino-4-(1,3-dihydroisoindole-2-carbonyl)quinazolin-6-yl]-N-methyl-N-(2-methylaminoethyl)benzenesulfonamide]"
10,0.01 to 1,"NCCNS(=O)(=O)c1ccccc1-c1ccc2nc(N)nc(C(=O)N3Cc4ccccc4C3)c2c1 [Compound A14, 2-[2-Amino-4-(1,3-dihydroisoindole-2-carbonyl)quinazolin-6-yl]-N-(2-aminoethyl)benzenesulfonamide]"
11,0.01 to 1,"CN(CCOC(=O)CN)S(=O)(=O)c1ccccc1-c1ccc2nc(N)nc(C(=O)N3Cc4ccccc4C3)c2c1 [Compound A15, 2-({2-[2-amino-4-(1,3-dihydroisoindole-2-carbonyl)quinazolin-6-yl]benzenesulfonyl}methylamino)ethyl aminoacetate]"
12,0.01 to 1,CC(CN(C)C)NS(=O)(=O)c1ccccc1-c1ccc2nc(N)nc(C(=O)N3Cc4ccccc4C3)c2c1 (stereo not drawn) [Compound A17]
13,0.01 to 1,CN(Cc1cncn1C)S(=O)(=O)c1ccccc1-c1ccc2nc(N)nc(C(=O)N3Cc4ccccc4C3)c2c1 [Compound A18]
14,0.01 to 1,"CCN(CCO)S(=O)(=O)c1ccccc1-c1ccc2nc(N)nc(C(=O)N3Cc4ccccc4C3)c2c1 [Compound A25, 2-[2-Amino-4-(1,3-dihydroisoindole-2-carbonyl)quinazolin-6-yl]-N-ethyl-N-(2-hydroxyethyl)benzenesulfonamide]"
15,1 to 10,"Nc1nc(C(=O)N2Cc3ccccc3C2)c2cc(-c3ccccc3S(=O)(=O)n3ccnc3)ccc2n1 [Compound A27, {2-Amino-6-[2-(imidazole-1-sulfonyl)phenyl]quinazolin-4-yl}-(1,3-dihydroisoindol-2-yl)methanone]"
16,0.01 to 1,"Cc1nccn1S(=O)(=O)c1ccccc1-c1ccc2nc(N)nc(C(=O)N3Cc4ccccc4C3)c2c1 [Compound A28, {2-Amino-6-[2-(2-methylimidazole-1-sulfonyl)phenyl]quinazolin-4-yl}-(1,3-dihydroisoindol-2-yl)methanone]"
17,0.01 to 1,"Cc1cn(S(=O)(=O)c2ccccc2-c2ccc3nc(N)nc(C(=O)N4Cc5ccccc5C4)c3c2)cn1 [Compound A30, {2-Amino-6-[2-(4-methylimidazole-1-sulfonyl)phenyl]quinazolin-4-yl}-(1,3-dihydroisoindol-2-yl)methanone]"
